Assays:
[1] = target: Platelet-activating factor receptor (Mus musculus) (UniProt Q62035); assay: Protection of PAF induced lethality in mouse after intraperitoneal dose of 1 mg/kg in saline 0.5 hr prior to an LD90 of PAF; type: functional, organism-based; set-up: dose 1 mg/kg
Oryctolagus cuniculus = assay: Protection of PAF induced lethality in rabbit after intraperitoneal dose of 1 mg/kg in saline 0.5 hr prior to an LD90 of PAF; type: functional; conditions: ip

Sequence of Platelet-activating factor receptor (Mus musculus) (Q62035 whole entry): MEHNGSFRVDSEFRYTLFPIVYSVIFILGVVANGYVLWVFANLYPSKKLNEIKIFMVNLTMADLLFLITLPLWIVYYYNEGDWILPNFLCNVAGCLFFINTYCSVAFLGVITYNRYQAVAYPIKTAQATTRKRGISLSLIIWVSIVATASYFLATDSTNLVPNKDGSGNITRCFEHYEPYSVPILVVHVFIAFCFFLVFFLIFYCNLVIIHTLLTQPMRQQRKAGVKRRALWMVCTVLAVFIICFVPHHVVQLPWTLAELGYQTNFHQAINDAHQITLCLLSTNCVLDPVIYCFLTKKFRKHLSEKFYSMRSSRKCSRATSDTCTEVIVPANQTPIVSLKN

Compound `CCCCCCCCCCCCCCOc1ccc(CNC(=O)c2cccc[n+]2CC)cc1` has a Survival [1] of 36%.

Compound `CCCCCCCCCCCCCCOc1ccc(C(=O)NC(=O)c2cc[n+](CCC)cc2)cc1OC` has a Survival [1] of 33%.

`CCCCCCCCCCCCCCOc1ccc(CN(Cc2ccc[n+](C)c2)C(C)=O)cc1` was tested, and the Survival [1] was 38%.

Work on `CCCCCCCCCCCCCCOc1ccc(C(=O)N(Cc2cccc[n+]2C)C(C)=O)cc1OCCCCCCCCCCCCCC` yielded a Survival [1] of 36%.

With `CCCCCCCCCCCCCCOc1ccc(CN(Cc2cccc[n+]2CC)C(C)=O)cc1` the Survival [1] was 40%.

Compound `CCCCCCCCCCCCCCOc1ccc(COC(=O)N(Cc2cccc[n+]2C)C(C)=O)cc1` has a Survival [1] of 40%.

For `CCCCCCCCCCCCCCOc1ccc(C(=O)N(Cc2cccc[n+]2Cc2ccccc2)C(C)=O)cc1`, the Survival [1] was 0%.

With `CCCCCCCCCCCCCCOc1ccc(CN(Cc2cc[n+](C)cc2)C(C)=O)cc1` the survival at 1 mg/kg (Oryctolagus cuniculus) was 0%.

Compound `CCCCCCCCCCCCCCOc1ccc(C(=O)N(Cc2cc[n+](C)cc2)C(C)=O)cc1C(C)(C)C` has a Survival [1] of 27%.

With `CCCCCCCCCCCCCCOc1ccccc1CN(Cc1cccc[n+]1C)C(C)=O` the Survival [1] was 23%.

`CCCCCCCCCCCCCCOc1ccc(C(=O)N(Cc2ccc[n+](C)c2)C(C)=O)cc1C(C)(C)C` showed a Survival [1] of 17%.

Compound `CCCCCCCCCCCCCCOc1cc(C(=O)N(Cc2cccc[n+]2C)C(C)=O)ccc1OC` has a Survival [1] of 21%.

For `CCCCCCCCCCCCCCOc1ccc(C(=O)N(Cc2cccc[n+]2C)C(C)=O)cc1`, the Survival [1] was 27%.

`CCCCCCCCCCCCCCOc1ccc(C(=O)N(Cc2cccc[n+]2CCC)C(C)=O)cc1OC` was tested, and the Survival [1] was 47%.

`CCCCCCCCCCCCCCOc1cccc(OP(=O)([O-])Oc2cccc(C[n+]3csc(C)c3)c2)c1C(=O)OC` showed a Survival [1] of 85% and a survival at 1 mg/kg (Oryctolagus cuniculus) of 53%.

`CCCCCCCCCCCCCCOc1ccc(C(=O)NC(=O)c2ccc[n+](CCC)c2)cc1OC` showed a Survival [1] of 42%.

`CCCCCCCCCCCCCCCCCCNC(=O)Oc1ccc(C(=O)N(Cc2cccc[n+]2C)C(C)=O)cc1C(C)(C)C` gave a Survival [1] of 29%.

`CCCCCCCCCCCCCCOc1ccc(C(=O)N(Cc2cccc[n+]2C)C(C)=O)cc1OC` gave a Survival [1] of 58% and a survival at 1 mg/kg (Oryctolagus cuniculus) of 75%.

With `CCCCCCCOc1ccc(C(=O)N(Cc2cccc[n+]2C)C(C)=O)cc1OCCCCCCC` the Survival [1] was 45% and the survival at 1 mg/kg (Oryctolagus cuniculus) was 0%.

In the case of `CCCCCCCCCCCCCCOc1ccc(C(=O)N(Cc2cccc[n+]2C)C(C)=O)cc1C(C)(C)C`, the Survival [1] is reported as 64% and the survival at 1 mg/kg (Oryctolagus cuniculus) is reported as 100%.

In the case of `CCCCCCCCCCOc1ccc(C(=O)N(Cc2cccc[n+]2C)C(C)=O)cc1C(C)(C)C`, the Survival [1] is reported as 50%.

Compound `CCCCCCCCCCCCCCOc1ccc(COC(=O)NCc2cccc[n+]2CC)cc1` has a Survival [1] of 36%.

`CCCCCCCCCCCCCCOc1ccc(C(=O)N(Cc2cccc[n+]2CC)C(C)=O)cc1OC` showed a Survival [1] of 58% and a survival at 1 mg/kg (Oryctolagus cuniculus) of 33%.

From ChEMBL document CHEMBL1127088, “Analogues of platelet activating factor. 8. Antagonists of PAF containing an aromatic ring linked to a pyridinium ring” (J Med Chem, 1993)
